{"source": "patent US12213980B2", "about": "“Application of PDE9A inhibitor in preparation of products having elevated Treg content, drugs for preventing and treating inflammatory bowel disease and health care products” (ZHEJIANG UNIVERSITY, priority 2018, dated 2025)", "key": {"[1]": {"test_system": "Treg cells in mesenteric lymph node, spleen and colon", "test": "Activation test of Treg in DSS induction model (flow cytometry)", "assay_type": "in vivo, C57 female mice", "protocol": "The colon was digested with collagenase, and the mesenteric lymph nodes and spleen tissues were ground and sieved through 100 mesh to prepare single cell suspensions. The cell density was adjusted to 10^5 cell/100 μl, and the Treg amount was determined for each sample.\nRelated studies have shown that T cells, especially Treg cells, play a role in the protection of DSS inflammatory bowel disease model. In order to study the role of Treg in the DSS colitis model, three mesenteric lymph nodes, spleen and colon were evaluated based on trial 4, respectively."}, "[2]": {"test_system": "DC cells in colon and mesenteric lymph nodes", "test": "Activation test of intestinal mucosa DC in DSS induced model (flow cytometry)", "assay_type": "in vivo, C57 female mice", "protocol": "(§1) C57 female mice were selected and weighed about 20 g. All mice were randomly divided into control group (control group), model group (DSS group), sulfasalazine group (AS group) and low dose group (PF3 group). The middle dose group (PF10 group) and the high dose group (PF30 group), a total of 6 groups, 10 mice in each group.\n(§2) The control group was treated with deionized water and the remaining 5 groups were fed with 3% DSS solution.\n(§3) During the period, the sulfasalazine group was intragastrically administered at a dose of 0.5 g/kg, and the PF-04447943 low-dose group, the middle-dose group, and the high-dose daily gavage were administered at a dose of 3 mg/kg, 10 mg/kg, and 30 mg/kg, respectively. The body weight, water bottle weight and the record were weighed daily. On the 8th day, the mice were sacrificed by deep anesthesia, and the colon, mesenteric lymph nodes, spleen and anus were taken. The length of the colon was measured and the colon was divided into three sections. The anal part specimens were fixed in formalin and the remaining specimens were stored frozen at −80° C. Isolating the mononuclear cells of colon, mesenteric lymph node and spleen, then staining separately, the distribution of DC cells and Treg cells in colon, mesenteric lymph nodes and spleen were determined by flow cytometry. IL-6, IL-12, TNF-α, IL-17 etc were measured by ELISA. SOD activity and MDA amount in colon tissue were measured, and the effect of PDE9A inhibitor PF-04447943 on mouse model was analyzed.\nThe colon was digested with collagenase, and the mesenteric lymph nodes were ground and sieved through 100 mesh to prepare single cell suspensions. The cell density was adjusted to […], and the DC cell amount was determined for each sample.\nFIG. 5 is a control plot of total DC and mature DC in colon, mesenteric lymphatic cleansing in DSS model mice."}, "[3]": {"test_system": "SOD activity and MDA amount in colon tissue", "protocol": "as §1, §2, §3\nAfter the intestinal tissue homogenization, SOD activity and MDA amount in colon tissue were determined by SOD and MDA assay kits."}, "DSS mice": {"test_system": "DSS mice", "test": "DSS-induced mouse model, overall comparison with sulfasalazine", "assay_type": "in vivo, C57 female mice", "conditions": "high-dose PF-04447943 group (30 mg/kg) vs sulfasalazine at conventional dose (0.5 g/kg)"}, "[4]": {"test_system": "colonic mucin secretion in DSS model mice", "test": "Intestinal mucin secretion test in DSS-induced model", "assay_type": "in vivo, C57 female mice", "text": "FIG. 3 is a control map of colonic mucin secretion in DSS model mice. It can be obtained from FIG. 3. The DSS group lost epithelial integrity, crypt structure, and goblet cell, company with immune cell infiltration, Smooth muscle cell hypertrophy and reduced secretory glycoprotein when compared with the control group."}, "[5]": {"test_system": "TNF-α, IL-17, IL-6, IL-12/IL-23 in colon tissue", "protocol": "as §1, §2, §3\nAfter intestinal tissue homogenization, TNF-α, IL-17, IL-6, IL-12/IL-23 in colon tissue were determined by ELISA kit."}, "DSS modeled mice": {"test_system": "DSS modeled mice", "test": "DSS induced model weight and colon length test", "assay_type": "in vivo, C57 female mice"}, "[6]": {"conditions": "cited from earlier work"}, "[7]": {"conditions": "high dose group (30 mg/kg) vs DSS group and control group"}, "[8]": {"conditions": "high, medium and low dose groups vs DSS group"}, "[9]": {"conditions": "high, medium and low dose groups vs control and DSS groups"}, "[10]": {"conditions": "high dose group (30 mg/kg) vs DSS group"}}, "note": "Read-outs that look alike come from different tables or passages of the source.", "data": [{"molecule": "C[C@@H]1CN(Cc2ncccn2)C[C@H]1c1nc2c(cnn2C2CCOCC2)c(=O)[nH]1", "note": "[PF-04447943]", "values": [{"measurement": "DSS-inhibited Treg activation", "setting": "[1]; conclusion, dose not stated", "result": "significantly enhanced"}, {"measurement": "differentiation of CD4+Foxp3+ Treg cells", "setting": "[1]; conclusion, dose not stated", "result": "significantly induced an increase"}, {"measurement": "CD4+FOXP3+ Treg cells in colon", "setting": "[1]; [7]", "result": "significantly higher than that of the DSS group and the control group"}, {"measurement": "CD4+FOXP3+ Treg cells in mesenteric lymph nodes", "setting": "[1]; [7]", "result": "significantly higher than that of the DSS group and the control group"}, {"measurement": "CD4+FOXP3+ Treg cells in spleen", "setting": "[1]; [7]", "result": "significantly higher than that of the DSS group and the control group"}, {"measurement": "CD4+CD25+ Treg cells in colon", "setting": "[1]; [8]", "result": "significantly higher in the colon than in the DSS group"}, {"measurement": "CD4+CD25+ Treg cells in mesenteric lymph nodes", "setting": "[1]; [9]", "result": "significantly lower"}, {"measurement": "CD4+CD25+ Treg cells in spleen", "setting": "[1]; [9]", "result": "significantly lower"}, {"measurement": "migration of DC cells from the colon to the mesenteric lymph nodes and DC maturation", "setting": "[2]; conclusion, dose not stated", "result": "can inhibit"}, {"measurement": "activated DC cells in mesenteric lymph node (MLN)", "setting": "[2]; [8]", "result": "significantly lower than the DSS group"}, {"measurement": "activated DC (mDC) cells in colon", "setting": "[2]; low, medium and high dose groups (3, 10, 30 mg/kg) vs DSS group", "result": "significantly lower than the DSS group"}, {"measurement": "total DC cells in mesenteric lymph node (MLN)", "setting": "[2]; low, medium and high groups (3, 10, 30 mg/kg) vs DSS group", "result": "significantly lower than the DSS group"}, {"measurement": "DSS-induced intestinal oxidative stress damage", "setting": "[3]; conclusion, dose not stated", "result": "significantly inhibit"}, {"measurement": "MDA amount in colon tissue", "setting": "[3]; drug group vs DSS group", "result": "lower than that of the DSS group"}, {"measurement": "MDA amount in colon tissue", "setting": "[3]; [10]", "result": "statistically different from the DSS group"}, {"measurement": "SOD activity in colon tissue", "setting": "[3]; [10]", "result": "improved compared with the DSS group"}, {"measurement": "efficacy in IL-6 secretion, SOD activity, MDA amount, activation of DC and regulation of Treg", "setting": "DSS mice", "result": "superior to the conventional drug sulfasalazine at conventional dose"}, {"measurement": "destruction of intestinal mucosal mucin secretion induced by DSS", "setting": "[4]; conclusion, dose not stated", "result": "significantly inhibit"}, {"measurement": "loss of epithelial integrity and crypt structure, loss of goblet cells, immune cell infiltration, smooth muscle cell hypertrophy, secretory glycoprotein reduction", "setting": "[4]; low-dose, medium-dose and high-dose groups (3, 10, 30 mg/kg)", "result": "gradually reversed"}, {"measurement": "protective effect on colonic epithelial cells", "setting": "[4]; with increasing dose of PF-04447943 (3, 10, 30 mg/kg)", "result": "gradually better"}, {"measurement": "DSS-induced inflammatory factors secreted by the intestinal mucosa", "setting": "[5]; conclusion, dose not stated", "result": "significantly inhibits"}, {"measurement": "IL-6 level in colon tissue", "setting": "[5]; [10]", "result": "significantly lower than those in the DSS group"}, {"measurement": "IL-12/IL-23 level in colon tissue", "setting": "[5]; [10]", "result": "statistically significant compared with the DSS group"}, {"measurement": "IL-17 level in colon tissue", "setting": "[5]; [10]", "result": "statistically significant compared with the DSS group"}, {"measurement": "TNF-α level in colon tissue", "setting": "[5]; [10]", "result": "statistically significant compared with the DSS group"}, {"measurement": "IL-6 level in colon tissue", "setting": "[5]; middle dose group (10 mg/kg) vs DSS group", "result": "significantly lower than those in the DSS group"}, {"measurement": "colon length", "setting": "DSS modeled mice; PF30 group (30 mg/kg) vs DSS group", "result": "significant difference"}, {"measurement": "weight loss and colon shortening in the DSS-induced model", "setting": "DSS modeled mice; conclusion, dose not stated", "result": "inhibited the weight loss and colon shortening"}]}, {"molecule": "vedolizumab: α4β7 integrin antibody approved by the FDA in 2014 for moderate to severe UC and CD", "values": [{"measurement": "patients with adverse reactions", "setting": "[6]; CD patients", "result": 37, "unit": "%"}, {"measurement": "patients with adverse reactions", "setting": "[6]; UC patients", "result": 29, "unit": "%"}, {"measurement": "clinical improvement", "setting": "[6]; patients treated with vedolizumab", "result": "significant Clinical improvement"}]}, {"molecule": "O=C(O)c1cc(/N=N/c2ccc(S(=O)(=O)Nc3ccccn3)cc2)ccc1O", "note": "[sulfasalazine]", "values": [{"measurement": "activated DC cells in colon", "setting": "[2]; sulfasalazine group 0.5 g/kg, compared with PF-04447943 dose groups", "result": "lower than the high dose group"}]}]}
